Drawing on ChEMBL document CHEMBL5634167, “Insights into the structure-activity relationship of the anticancer compound ZJ-101: A role played by the amide moiety” (Bioorg Med Chem Lett, 2024), this text covers IC50 for five compounds.

By IC50 is commonly meant the midpoint of a concentration-inhibition curve. Higher therefore signals weaker potency.

What all share (format): functional, cell-based
For one test, the system named is HCT-116. Briefly: Antiproliferative activity against human HCT-116 cells assessed inhibition of cell growth incubated for 72 hrs by alamar blue assay. The settings on record: HCT-116, 72 h. (In general: The colour change of resazurin is a common sign of viable cells or microbes.)
A further test concerns MCF7. Briefly: Antiproliferative activity against human MCF7 cells assessed inhibition of cell growth incubated for 72 hrs by alamar blue assay. The settings on record: MCF7, 72 h.
The next test has as its system MDA-MB-231. Briefly: Antiproliferative activity against human MDA-MB-231 cells assessed inhibition of cell growth incubated for 72 hrs by alamar blue assay. The settings on record: MDA-MB-231, 72 h.

The compound `CC(=O)N[C@H](C)[C@@H](O)[C@@H](C)[C@@H]1OC(=O)/C=C/C=C(C)\C=C\[C@]2(C)CCC=C[C@@H]2/C=C(C)/C=C/[C@H]1C` registered an IC50 in the test with HCT-116 of 0.0882 µM.
Consider `CC1=C/C=C/C(=O)O[C@@H]([C@H](C)[C@H](O)[C@@H](C)NS(C)(=O)=O)[C@H](C)/C=C/C(C)=C/[C@H]2C=CCC[C@@]2(C)\C=C\1`, for which the figures for the IC50 in the test with MCF7, in the test on MDA-MB-231 and in the test on HCT-116 were 1.12 µM, 1.01 µM and 3.36 µM, respectively.
For `CNC(=O)N[C@H](C)[C@@H](O)[C@@H](C)[C@@H]1OC(=O)/C=C/C=C(C)\C=C\[C@]2(C)CCC=C[C@@H]2/C=C(C)/C=C/[C@H]1C`, the IC50 in the test with MCF7 came to 0.0885 µM; in the test on MDA-MB-231 it was 0.104 µM; in the test with HCT-116, 0.136 µM.
The corresponding values for `COC(=O)N[C@H](C)[C@@H](O)[C@@H](C)[C@@H]1OC(=O)/C=C/C=C(C)\C=C\[C@]2(C)CCC=C[C@@H]2/C=C(C)/C=C/[C@H]1C` are above 2 µM, above 2 µM and above 5 µM.
Regarding `CC1=C/C=C/C(=O)O[C@@H]([C@H](C)[C@H](O)[C@@H](C)NC(=O)C(C)C)[C@H](C)/C=C/C(C)=C/[C@H]2C=CCC[C@@]2(C)\C=C\1`, the results for the IC50 in the test on MCF7, in the test with MDA-MB-231 and in the test on HCT-116 were 0.0414 µM, 0.064 µM and 0.0475 µM, respectively.
